In the CheMixHub ionic liquid set:

Assay: xn = mol fraction of the nth substance listed

CCCC[n+]1ccn(C)c1C.NCC(=O)[O-] + O
100 kPa
Conditions | viscosity [mPa·s]
293.15 K, x1 = 0.3904 | 66
298.15 K, x1 = 0.0999 | 13.7
298.15 K, x1 = 0.1982 | 22.2
298.15 K, x1 = 0.3003 | 34.6
298.15 K, x1 = 0.6 | 94
298.15 K, x1 = 0.6999 | 119
298.15 K, x1 = 0.798 | 146
303.15 K, x1 = 0.9001 | 125
308.15 K, x1 = 0.0999 | 7.8
308.15 K, x1 = 0.3003 | 20.2
308.15 K, x1 = 0.3904 | 28.4
308.15 K, x1 = 0.6999 | 65
313.15 K, x1 = 0.3904 | 23.4
313.15 K, x1 = 0.9001 | 71
318.15 K, x1 = 0.6999 | 46.4
318.15 K, x1 = 0.798 | 54

CCOCC[n+]1ccn(C)c1.O=S(=O)([N-]S(=O)(=O)C(F)(F)F)C(F)(F)F + O
101 kPa, x1 = 0.8424
Conditions | viscosity [mPa·s]
283 K | 68.1
298.1 K | 34

CC[n+]1ccccc1.O=S(=O)([O-])C(F)(F)F + O
101 kPa
Conditions | viscosity [mPa·s]
293.15 K, x1 = 0.067 | 2.47
298.15 K, x1 = 0.067 | 2.16
298.15 K, x1 = 0.498 | 15.04
313.15 K, x1 = 0.689 | 17.4
343.15 K, x1 = 0.689 | 8.42
353.15 K, x1 = 0.893 | 10.74

CC[n+]1ccn(C)c1.[Cl-] + O
viscosity [mPa·s], 100 kPa
Conditions | 278.15 K | 283.15 K | 288.15 K | 293.15 K | 298.15 K | 303.15 K | 308.15 K | 313.15 K | 373 K
x1 = 9.063e-05 | 1.528 | 1.312 | 1.141 | 1.004 | 0.892 | 0.799 | 0.72 | 0.653 | –
x1 = 0.0001805 | 1.531 | 1.314 | 1.144 | 1.006 | 0.894 | 0.8 | 0.721 | 0.654 | –
x1 = 0.0003599 | 1.533 | 1.317 | 1.148 | 1.008 | 0.896 | 0.802 | 0.723 | 0.655 | –
x1 = 0.0005394 | 1.538 | 1.321 | 1.15 | 1.011 | 0.898 | 0.804 | 0.724 | 0.656 | –
x1 = 0.0007199 | 1.541 | 1.323 | 1.152 | 1.013 | 0.899 | 0.805 | 0.725 | 0.658 | –
x1 = 0.0008996 | 1.545 | 1.327 | 1.156 | 1.015 | 0.902 | 0.807 | 0.728 | 0.659 | –
x1 = 0.001079 | 1.547 | 1.329 | 1.158 | 1.018 | 0.904 | 0.809 | 0.729 | 0.661 | –
x1 = 0.001351 | 1.554 | 1.335 | 1.163 | 1.023 | 0.908 | 0.813 | 0.732 | 0.664 | –
x1 = 0.001799 | 1.563 | 1.344 | 1.17 | 1.029 | 0.914 | 0.817 | 0.736 | 0.667 | –
x1 = 0.87 | – | – | – | – | – | – | – | – | 23
x1 = 0.9302 | – | – | – | – | – | – | – | – | 24
x1 = 0.9756 | – | – | – | – | – | – | – | – | 32
x1 = 1 | – | – | – | – | – | – | – | – | 36
